Results on eight compounds are retold here after US7282496B2, “Allenic aryl sulfonamide hydroxamic acids as matrix metalloproteinase and TACE inhibitors” (Wyeth Holdings Corporation, priority 2001, dated 2007).

What all share (format): biochemical
For assay [1], the target named is T1, MMP-1 (Homo sapiens, UniProt P03956).
T1 sequence (P03956 100-469): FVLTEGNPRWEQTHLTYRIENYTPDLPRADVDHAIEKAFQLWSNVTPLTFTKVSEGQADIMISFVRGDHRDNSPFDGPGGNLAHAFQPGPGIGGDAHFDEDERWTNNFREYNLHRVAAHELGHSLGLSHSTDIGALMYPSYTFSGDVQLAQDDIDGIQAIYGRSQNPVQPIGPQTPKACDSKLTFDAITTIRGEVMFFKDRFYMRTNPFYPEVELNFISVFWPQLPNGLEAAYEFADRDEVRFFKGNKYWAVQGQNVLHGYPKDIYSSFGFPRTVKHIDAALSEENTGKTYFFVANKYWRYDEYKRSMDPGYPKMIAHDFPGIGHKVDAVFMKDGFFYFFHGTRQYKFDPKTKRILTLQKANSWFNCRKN
Kind of assay: MMP-1 inhibition, thiopeptide or fluorescent peptide substrate test procedure. The following applies: for IC50: in vitro enzyme inhibition. How it is done:
(§1) Test Procedures for Measuring MMP-1, MMP-9, and MMP-13 Inhibition
(§2) These standard pharmacological test procedures are based on the cleavage of a thiopeptide substrates such as Ac-Pro-Leu-Gly(2-mercapto-4-methyl-pentanoyl)-Leu-Gly-OEt by the matrix metalloproteinases MMP-1, MMP-13 (collagenases) or MMP-9 (gelatinase), which results in the release of a substrate product that reacts calorimetrically with DTNB (5,5′-dithiobis(2-nitro-benzoic acid)). The enzyme activity is measured by the rate of the color increase. The thiopeptide substrate is made up fresh as a 20 mM stock in 100% DMSO and the DTNB is dissolved in 100% DMSO as a 100 mM stock and stored in the dark at room temperature. Both the substrate and DTNB are diluted together to 1 mM with substrate buffer (50 mM HEPES pH 7.5, 5 mM CaCl2) before use. The stock of enzyme is diluted with buffer (50 mM HEPES, pH 7.5, 5 mM CaCl2, 0.02% Brij) to the desired final concentration. The buffer, enzyme, vehicle or inhibitor, and DTNB/substrate are added in this order to a 96 well plate (total reaction volume of 200 μl) and the increase in color is monitored spectrophotometrically for 5 minutes at 405 nm on a plate reader and the increase in color over time is plotted as a linear line.
(§3) Alternatively, a fluorescent peptide substrate is used. In this test procedure, the peptide substrate contains a fluorescent group and a quenching group. Upon cleavage of the substrate by an MMP, the fluorescence that is generated is quantitated on the fluorescence plate reader. The assay is run in HCBC assay buffer (50 mM HEPES, pH 7.0, 5 mM Ca^+2, 0.02% Brij, 0.5% Cysteine), with human recombinant MMP-1, MMP-9, or MMP-13. The substrate is dissolved in methanol and stored frozen in 1 mM aliquots. For the assay, substrate and enzymes are diluted in HCBC buffer to the desired concentrations. Compounds are added to the 96 well plate containing enzyme and the reaction is started by the addition of substrate. The reaction is read (excitation 340 nm, emission 444 nm) for 10 min. and the increase in fluorescence over time is plotted as a linear line.
(§4) For either the thiopeptide or fluorescent peptide test procedures, the slope of the line is calculated and represents the reaction rate. The linearity of the reaction rate is confirmed (r^2>0.85). The mean (x±sem) of the control rate is calculated and compared for statistical significance (p<0.05) with drug-treated rates using Dunnett's multiple comparison test. Dose-response relationships can be generated using multiple doses of drug and IC50 values with 95% Cl are estimated using linear regression.

The target in assay [2] is MMP-9 (Homo sapiens, UniProt P14780). The assay can be described thus: MMP-9 inhibition, thiopeptide or fluorescent peptide substrate test procedure. Conditions: in vitro enzyme inhibition. How it is done:
as §1, §2, §3, §4

Assay [3] deals with MMP-13 (Homo sapiens, UniProt P45452). Kind of assay: MMP-13 inhibition, thiopeptide or fluorescent peptide substrate test procedure. The following applies: in vitro enzyme inhibition. How it is done:
as §1, §2, §3, §4

Assay [4] deals with TNF-α converting enzyme (TACE) (Homo sapiens, UniProt P78536). Kind of assay: TACE inhibition, fluorescent peptidyl substrate test procedure. The following applies: in vitro enzyme inhibition. How it is done:
Test Procedure for Measuring TACE Inhibition
Using 96-well black microtiter plates, each well receives a solution composed of 10 μL TACE (final concentration 1 μg/mL), 70 μL Tris buffer, pH 7.4 containing 10% glycerol (final concentration 10 mM), and 10 μL of test compound solution in DMSO (final concentration 1 μM, DMSO concentration <1%) and incubated for 10 minutes at room temperature. The reaction is initiated by addition of a fluorescent peptidyl substrate (final concentration 100 μM) to each well and then shaking on a shaker for 5 sec.
The reaction is read (excitation 340 nm, emission 420 nm) for 10 min. and the increase in fluorescence over time is plotted as a linear line. The slope of the line is calculated and represents the reaction rate.
The mean (x±sem) of the control rate is calculated and compared for statistical significance (p<0.05) with drug-treated rates using Dunnett's multiple comparison test.

Structures are written as SMILES.

Sequence of TNF-α converting enzyme (TACE) (P78536 215-824, species assumed): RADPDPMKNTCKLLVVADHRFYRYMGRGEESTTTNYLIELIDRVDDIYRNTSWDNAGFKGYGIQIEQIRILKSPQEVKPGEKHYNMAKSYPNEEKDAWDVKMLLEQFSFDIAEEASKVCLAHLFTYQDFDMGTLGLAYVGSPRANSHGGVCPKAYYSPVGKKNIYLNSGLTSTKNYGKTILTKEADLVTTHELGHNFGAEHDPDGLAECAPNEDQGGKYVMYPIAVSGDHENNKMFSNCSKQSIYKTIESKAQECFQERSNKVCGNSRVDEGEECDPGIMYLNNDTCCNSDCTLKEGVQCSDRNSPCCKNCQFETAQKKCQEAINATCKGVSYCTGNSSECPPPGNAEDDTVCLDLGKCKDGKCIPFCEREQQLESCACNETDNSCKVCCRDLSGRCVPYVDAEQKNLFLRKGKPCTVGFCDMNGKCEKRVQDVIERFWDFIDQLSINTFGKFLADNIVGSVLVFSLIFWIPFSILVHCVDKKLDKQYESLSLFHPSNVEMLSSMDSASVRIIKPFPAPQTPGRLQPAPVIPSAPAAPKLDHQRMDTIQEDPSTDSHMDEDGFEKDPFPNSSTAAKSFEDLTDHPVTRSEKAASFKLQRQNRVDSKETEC
Sequence of MMP-9 (P14780 94-707): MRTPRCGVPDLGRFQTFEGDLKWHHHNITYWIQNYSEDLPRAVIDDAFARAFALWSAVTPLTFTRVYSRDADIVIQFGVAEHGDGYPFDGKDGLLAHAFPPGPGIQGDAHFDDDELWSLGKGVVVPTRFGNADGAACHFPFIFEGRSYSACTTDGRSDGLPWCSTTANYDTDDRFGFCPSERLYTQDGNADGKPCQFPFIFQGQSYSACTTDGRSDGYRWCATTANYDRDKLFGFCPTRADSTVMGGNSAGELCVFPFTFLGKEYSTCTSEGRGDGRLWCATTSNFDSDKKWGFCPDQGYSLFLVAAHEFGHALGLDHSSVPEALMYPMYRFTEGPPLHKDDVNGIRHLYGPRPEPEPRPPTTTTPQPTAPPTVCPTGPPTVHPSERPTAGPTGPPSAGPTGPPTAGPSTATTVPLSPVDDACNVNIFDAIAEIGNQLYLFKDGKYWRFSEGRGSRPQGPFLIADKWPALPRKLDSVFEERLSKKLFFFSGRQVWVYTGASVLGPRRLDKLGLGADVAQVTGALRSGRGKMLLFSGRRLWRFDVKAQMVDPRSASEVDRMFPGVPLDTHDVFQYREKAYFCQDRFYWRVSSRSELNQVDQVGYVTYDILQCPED

As to `C=C=CCOc1ccc(S(=O)(=O)NC(C(=O)NO)C(C)C)cc1` (centres unmarked) [Example 13, 2-({[4-(2,3-Butadienyloxy)phenyl]sulfonyl}amino)-N-hydroxy-3-methylbutanamide], the IC50 in assay [1] was 2670 nM; in assay [2], 36 nM; in assay [3], 21 nM; in assay [4] it was 51 nM.
For `C=C=CCOc1ccc(S(=O)(=O)N(C)C(C(=O)NO)C(C)C)cc1` (centres unmarked) [Example 16, 2-[{[4-(2,3-Butadienyloxy)phenyl]sulfonyl}(methyl)amino]-N-hydroxy-3-methylbutanamide], the IC50 in assay [3] was determined as 3 nM; in assay [4], 36 nM.
As to `CC=C=CCOc1ccc(S(=O)(=O)NC(C(=O)NO)C(C)C)cc1` (centres unmarked) [Example 19, N-Hydroxy-3-methyl-2-({[4-(2,3-pentadienyloxy)phenyl]sulfonyl}amino)butanamide], the IC50 in assay [1] is 8810 nM; in assay [2], 21 nM; in assay [3], 25 nM; in assay [4] it was 62 nM.
With `CC=C=CCOc1ccc(S(=O)(=O)N(C)C(C(=O)NO)C(C)C)cc1` (centres unmarked) [Example 22, N-Hydroxy-3-methyl-2-(methyl{[4-(2,3-pentadienyloxy)phenyl]sulfonyl}amino)butanamide], the half-inhibitory concentration (IC50) came out at 877 nM in assay [1], 4 nM in assay [2], 6 nM in assay [3] and 48 nM in assay [4].
With `C=C=CCOc1ccc(S(=O)(=O)N2CCSC(C)(C)[C@@H]2C(=O)NO)cc1` [Example 26, (3S)-4-{[4-(2,3-Butadienyloxy)phenyl]sulfonyl}-N-hydroxy-2,2-dimethyl-3-thiomorpholinecarboxamide], the figures for the IC50 in assay [1], in assay [3] and in assay [4] were 50 nM, 4 nM and 116 nM, respectively.
With `C=C=CCOc1ccc(S(=O)(=O)N2Cc3ccccc3N(C(C)=O)CC2C(=O)NO)cc1` (centres unmarked) [Example 45, 1-Acetyl-4-{[4-(2,3-butadienyloxy)phenyl]sulfonyl}-N-hydroxy-2,3,4,5-tetrahydro-1H-1,4-benzodiazepine-3-carboxamide], the IC50 was 2350 nM in assay [1], 9 nM in assay [2], 7 nM in assay [3] and 71 nM in assay [4].
Consider `C=C=CCOc1ccc(S(=O)(=O)N2Cc3ccccc3N(C(=O)c3ccccc3)CC2C(=O)NO)cc1` (centres unmarked) [Example 46, 1-Benzoyl-4-(4-buta-2,3-dienyloxy-benzenesulfonyl)-2,3,4,5-tetrahydro-1H-benzo[e][1,4]diazepine-3-carboxylic acid hydroxyamide], for which the IC50 in assay [1] came to 675 nM; in assay [3], 4 nM.
In the case of `CC=C=CCOc1ccc(S(=O)(=O)N2Cc3ccccc3N(C(=O)c3ccccc3)CC2C(=O)NO)cc1` (centres unmarked) [Example 47, 1-Benzoyl-N-hydroxy-4-{[4-(2,3-pentadienyloxy)phenyl]sulfonyl}-2,3,4,5-tetrahydro-1H-1,4-benzodiazepine-3-carboxamide], the inhibition at 1 µM in assay [1] (1 μM, read-out: MMP-1 % (inhibition) at single concentration) stood at 32%. The half-maximal inhibitory concentration (IC50) is 5 nM in assay [3] and 1400 nM in assay [4].
